Read-outs that look alike come from different tables or passages of the source.
Experiments:
[1] = system: KMS12-BM (NIK WT) multiple myeloma cells; assay: Antiproliferative activity on KMS12-BM multiple myeloma cells (CellTiter-Glo); format: cell-based, human; conditions: Homo sapiens, KMS-12-BM, 96 hr treatment, averaged values, read-out: KMS-12 Proliferation inhibition (IC50 (nM))
Procedure: (§1) Determination of Antiproliferative Activity on JJN-3 (NIK Translocated) and KMS12-BM (NIK WT) Multiple Myeloma Cells
(§2) All compounds tested were dissolved in DMSO and further dilutions were made in culture medium. Final DMSO concentration was 0.3% (v/v) in cell proliferation assays. Viability was assessed using CellTiter-Glo cell viability assay kit (Promega). […] Cells were routinely kept as suspension cells at 37° C. in a humidified 5% CO2 atmosphere. Cells were passaged at a seeding density of 0.2×10^6/ml twice a week. Cells were seeded in black tissue culture treated 96-well plates (Perkin Elmer). Densities used for plating ranged from 15000 (JJN3) to 20000 (KMS12BM) cells per well in a total volume of 135 μl medium. Drugs and/or solvents were added (15 μl) to a final volume of 150 μl. Following 96 hr of treatment, plates were removed from the incubator and allowed to equilibrate to room temperature for approx 10 min. 75 μl CellTiter-Glo reagent was added to each well that was then covered (Perkin Elmer Topseal) and shaken on plate shaker for 10 min. Luminescence was measured on a HTS Topcount (Perkin Elmer). […] For initial screening purposes, compounds were tested using a 9 point dilution curve (serial 1:3 dilutions). For each experiment, controls (containing no drug) and a blank incubation (containing cells read at the time of compound addition) were run in parallel. The blank value was subtracted from all control and sample values. For each sample, the mean value for cell growth (in relative light units) was expressed as a percentage of the mean value for cell growth of the control.

[2] = target: recombinant human NF-kappaB-inducing Kinase (NIK/MAP3K14) (Homo sapiens, UniProt Q99558); assay: Inhibition of auto-phosphorylation of recombinant human NIK/MAP3K14 activity (AlphaScreen); format: biochemical; conditions: 25 microM ATP, averaged over all measurements on all batches
Procedure: Pharmacological Part Biological assay A Inhibition of auto-phosphorylation of recombinant human NF-kappaB-inducing Kinase (NIK/MAP3K14) Activity (AlphaScreen®)
NIK/MAP3K14 auto-phosphorylation activity was measured using the AlphaScreen® (αscreen) format (Perkin Elmer). All compounds tested were dissolved in dimethyl sulfoxide (DMSO) and further dilutions were made in assay buffer. Final DMSO concentration was 1% (v/v) in assays. Assay buffer was 50 mM Tris pH 7.5 containing 1 mM EGTA (ethylene glycol tetraacetic acid), 1 mM DTT (dithiothreitol), 0.1 mM Na3VO4, 5 mM MgCl2, 0.01% Tween® 20. Assays were carried out in 384 well Alphaplates (Perkin Elmer). […] Incubations were initiated by addition of GST-tagged NIK/MAP3K14 enzyme, carried out for 1 h at 25° C. and terminated by addition of stop buffer containing anti-phospho-IKK Ser176/180 antibody. Protein A Acceptor and Glutathione-Donor beads were added before reading using an EnVision® Multilabel Plate Reader (Perkin Elmer). Signal obtained in the wells containing blank samples was subtracted from all other wells and IC50's were determined by fitting a sigmoidal curve to % inhibition of control versus Log10 compound concentration.

[3] = system: JJN-3 (NIK translocated) multiple myeloma cells; assay: Antiproliferative activity on JJN-3 multiple myeloma cells (CellTiter-Glo); format: cell-based, human; conditions: Homo sapiens, JJN-3 (NIK translocated) cells, 96 hr treatment, averaged values, read-out: JJN-3 Proliferation inhibition (IC50 (nM))
Procedure: as §1, §2

Chain of recombinant human NF-kappaB-inducing Kinase (NIK/MAP3K14) (Q99558 whole entry): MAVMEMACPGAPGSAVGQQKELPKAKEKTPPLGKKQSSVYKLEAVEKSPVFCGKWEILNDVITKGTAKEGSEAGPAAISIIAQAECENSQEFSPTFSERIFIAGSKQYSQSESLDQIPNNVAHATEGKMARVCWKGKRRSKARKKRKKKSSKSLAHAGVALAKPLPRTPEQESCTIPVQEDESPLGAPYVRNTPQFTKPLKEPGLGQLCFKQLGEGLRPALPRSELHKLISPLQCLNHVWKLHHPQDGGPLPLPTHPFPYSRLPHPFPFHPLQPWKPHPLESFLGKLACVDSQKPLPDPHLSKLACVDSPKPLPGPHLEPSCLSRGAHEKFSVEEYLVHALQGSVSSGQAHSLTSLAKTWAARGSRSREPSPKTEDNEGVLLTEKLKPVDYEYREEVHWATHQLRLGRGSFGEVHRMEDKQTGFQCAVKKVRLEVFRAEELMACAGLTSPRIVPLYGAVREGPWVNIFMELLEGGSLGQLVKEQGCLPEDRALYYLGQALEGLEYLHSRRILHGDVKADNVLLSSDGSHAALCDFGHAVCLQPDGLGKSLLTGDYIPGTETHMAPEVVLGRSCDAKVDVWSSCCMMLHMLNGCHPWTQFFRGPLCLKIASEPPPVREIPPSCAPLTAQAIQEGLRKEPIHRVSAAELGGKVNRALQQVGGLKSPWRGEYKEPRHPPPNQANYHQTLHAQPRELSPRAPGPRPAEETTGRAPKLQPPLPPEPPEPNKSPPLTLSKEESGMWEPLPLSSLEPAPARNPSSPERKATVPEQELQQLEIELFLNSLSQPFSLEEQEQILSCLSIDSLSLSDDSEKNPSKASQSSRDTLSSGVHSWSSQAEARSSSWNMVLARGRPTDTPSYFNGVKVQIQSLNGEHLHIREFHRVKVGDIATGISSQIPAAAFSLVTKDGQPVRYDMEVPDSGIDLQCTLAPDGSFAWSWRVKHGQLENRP

With CC(C)OCCOc1ncccc1Nc1nccc(-c2cc(C#N)c3c(c2)[C@@](C)(CO)CN3)n1 [Compound 19] the IC50 ([1]; 96 h) was over 10000 nM, the IC50 [2] was 14.5 nM and the melting point was 154 °C. The IC50 ([3]; JJN-3, 96 h) was 912 nM.

Molecule COc1cnccc1Nc1nccc(-c2cc(C#N)c3c(c2)[C@@](C)(CO)CN3)n1 [Compound 20] has an IC50 ([1]; 96 h) of over 10000 nM, an IC50 [2] of 0.9 nM and a melting point of over 260 °C. The IC50 ([3]; JJN-3, 96 h) was 1580 nM.

Work on CC(C)OCCOc1ncc(Cl)cc1Nc1nccc(-c2cc(C#N)c3c(c2)[C@@](C)(CO)CN3)n1 [Compound 21] yielded an IC50 [1] of over 10000 nM, an IC50 [2] of 22.4 nM and a melting point of 170 °C. For the same molecule, the IC50 [3] was 813 nM.

For C[C@]1(CO)CNc2c(C#N)cc(-c3ccnc(Nc4cccnc4OC4CCOCC4)n3)cc21 [Compound 23], the IC50 ([1]; 96 h) was 7410 nM, the IC50 [2] was 4.9 nM and the melting point was 213 °C. For the same molecule, the IC50 ([3]; JJN-3, 96 h) was 708 nM.

Work on COc1cccnc1Nc1nccc(-c2cc(C#N)c3c(c2)[C@@](C)(CO)CN3)n1 [Compound 24] yielded an IC50 ([1]; 96 h) of over 10000 nM, an IC50 [2] of 123 nM and a melting point of 145 °C. It also gave an IC50 ([3]; JJN-3, 96 h) of 6920 nM.

C[C@]1(CO)CNc2c(C#N)cc(-c3ccnc(Nc4cccnc4O[C@H]4CCCOC4)n3)cc21 [Compound 26] gave an IC50 ([1]; 96 h) of over 10000 nM, an IC50 [2] of 4.1 nM and a melting point of 155 °C. It also gave an IC50 ([3]; JJN-3, 96 h) of 794 nM.

With C[C@]1(CO)CNc2c(C#N)cc(-c3ccnc(Nc4cccnc4O[C@@H]4CCCOC4)n3)cc21 [Compound 27] the IC50 ([1]; 96 h) was 7410 nM, the IC50 [2] was 3.6 nM and the melting point was 149 °C. For the same molecule, the IC50 ([3]; JJN-3, 96 h) was 1510 nM.

C[C@]1(CO)CNc2c(C#N)cc(-c3ccnc(Nc4cccnc4O[C@H]4CCOC4)n3)cc21 [Compound 28] gave an IC50 ([1]; 96 h) of 3090 nM, an IC50 [2] of 3.2 nM and a melting point of 194 °C. It also gave an IC50 ([3]; JJN-3, 96 h) of 813 nM.

For CC(C)Oc1ncc(Cl)cc1Nc1nccc(-c2cc(C#N)c3c(c2)[C@@](C)(CO)CN3)n1 [Compound 30], the IC50 ([1]; 96 h) was over 10000 nM, the IC50 [2] was 51.3 nM and the melting point was 195 °C. It also gave an IC50 ([3]; JJN-3, 96 h) of 1260 nM.

Molecule CC1(CO)CNc2c(C#N)cc(-c3ccnc(Nc4cccnc4C(F)(F)F)n3)cc21 (centres unmarked) [Compound 31] has an IC50 ([1]; 96 h) of over 10000 nM, an IC50 [2] of 9.8 nM and a melting point of 202 °C. For the same molecule, the IC50 ([3]; JJN-3, 96 h) was 2000 nM.

Molecule C[C@]1(CO)CNc2c(C#N)cc(-c3ccnc(Nc4cccn(CC(O)CO)c4=O)n3)cc21 (some centres unmarked) [Compound 31i] has an IC50 ([1]; 96 h) of over 10000 nM, an IC50 [2] of 3.3 nM and a melting point of over 250 °C. The IC50 ([3]; JJN-3, 96 h) was about 5010 nM.

COCCOc1ncccc1Nc1nccc(-c2cc(C#N)c3c(c2)[C@](C)(CO)CN3)n1 [Compound 34] gave an IC50 ([1]; 96 h) of over 10000 nM, an IC50 [2] of 38 nM and a melting point of 152 °C. It also gave an IC50 ([3]; JJN-3, 96 h) of 2880 nM.

CCOc1ncc(Cl)cc1Nc1nccc(-c2cc(C#N)c3c(c2)[C@@](C)(CO)CN3)n1 [Compound 35] showed an IC50 ([1]; 96 h) of over 10000 nM, an IC50 [2] of 15.9 nM and a melting point of 220 °C. For the same molecule, the IC50 ([3]; JJN-3, 96 h) was 794 nM.

In the case of COc1ncc(F)cc1Nc1nccc(-c2cc(C#N)c3c(c2)[C@@](C)(CO)CN3)n1 [Compound 36], the IC50 ([1]; 96 h) was over 10000 nM, the IC50 [2] was 3.3 nM and the melting point was over 250 °C. It also gave an IC50 ([3]; JJN-3, 96 h) of 288 nM.

COc1ccncc1Nc1nccc(-c2cc(C#N)c3c(c2)[C@@](C)(CO)CN3)n1 [Compound 37] showed an IC50 ([1]; 96 h) of over 10000 nM, an IC50 [2] of 1.8 nM and a melting point of 210 °C. The IC50 ([3]; JJN-3, 96 h) was 3470 nM.

In the case of COCCN(C)c1nc(OC)c(Nc2nccc(-c3cc(C#N)c4c(c3)[C@@](C)(CO)CN4)n2)cc1Cl [Compound 38], the IC50 ([1]; 96 h) was over 10000 nM, the IC50 [2] was 19.5 nM and the melting point was 215 °C. It also gave an IC50 ([3]; JJN-3, 96 h) of 79 nM.

With COCCOc1ncc(Cl)cc1Nc1nccc(-c2cc(C#N)c3c(c2)[C@@](C)(CO)CN3)n1 [Compound 39] the IC50 ([1]; 96 h) was over 10000 nM, the IC50 [2] was 8.5 nM and the melting point was 204 °C. It also gave an IC50 ([3]; JJN-3, 96 h) of 324 nM.

Source: patent US11001569B2, “6-membered heteroaromatic substituted cyanoindoline derivatives as NIK inhibitors” (Janssen Pharmaceutica NV, priority 2016, dated 2021)
